This is an account of results in patent publication US20260049072A1, “HETEROCYCLIC COMPOUND FOR INDUCING DEGRADATION OF MUTANT KRAS PROTEIN” (Astellas Pharma Inc., priority 2022, published 2026).

The term DC50 denotes the concentration at which degradation of the target reaches its halfway point. Broadly, the pIC50 is the negative decadic logarithm of the IC50, by convention in mol/L.

The structures appear in SMILES notation. pIC50: −log10 of the molar value.

The target of experiment [1] is T1, RAS G12V (Homo sapiens, UniProt P01116, G12V).
T1 construct: host or cells: PA-TU-8902 human pancreatic cancer cells
T1 sequence (P01116 1-188 isoform P01116-2 G12V): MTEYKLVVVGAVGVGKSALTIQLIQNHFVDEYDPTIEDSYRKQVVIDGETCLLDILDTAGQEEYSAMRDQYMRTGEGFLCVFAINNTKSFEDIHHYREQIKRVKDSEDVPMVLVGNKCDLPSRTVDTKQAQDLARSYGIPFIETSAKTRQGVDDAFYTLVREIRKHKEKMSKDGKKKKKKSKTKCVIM
As to the kind of experiment: RAS G12V degradation activity, Cell ELISA, PA-TU-8902. It counts as cell-based. Particulars: PA-TU-8902 cells, 24 hours, 100% = Example compound 17 at 1 μM; read-out: DC50 (RAS G12V 50% degradation value). On the procedure:
Test Example 1-1: Evaluation of RAS G12V Degradation Activity on Human KRAS G12V Mutant-Positive Pancreatic Cancer Line PA-TU-8902
The RAS G12V degradation activities of subject compounds were evaluated by measuring the expression levels of RAS G12V by a Cell ELISA method.
PA-TU-8902 cells (DSMZ, ACC 179) were seeded at 36 μL per well on a 384-well plate (from Greiner bio-one) to give 1.5×10^4 cells per well. As for the cell culture conditions, DMEM medium (from Sigma-Aldrich) containing 10% fetal bovine serum (from Cytiva) was used in the presence of 5% CO2 at 37° C.
The next day, the subject compounds (10 points having final concentrations in the range of 3 μM to 0.1 nM), Example compound 17 of a final concentration of 1 μM as a positive control and dimethyl sulfoxide (DMSO), which was the solvent for the subject compounds, as a negative control were diluted 100-fold with a fresh medium and were each added at 4 μL per well, followed by culturing for 24 hours.
The next day, the culture supernatant was removed, and a 4% paraformaldehyde phosphate buffer solution (from FUJIFILM Wako) was added at 20 μL per well. The plate was allowed to stand for 30 minutes at room temperature to thus immobilize the cells. Then, the supernatant was removed, and 0.1% Triton X-100 (from Amersham Biosciences)-containing Phosphate buffered saline (PBS) was added at 20 μL per well. After allowing the plate to stand at room temperature for 10 minutes, the supernatant was removed, and the wells were washed twice in total by adding PBS at 25 μL per well and removing the supernatant. The washing operations below were performed in the same manner. Next, the supernatant was removed, and 0.5% sodium dodecyl sulfate (SDS; from ThermoFisher Scientific)-containing PBS was added at 20 μL per well. After allowing the plate to stand at room temperature for 10 minutes, the plate was centrifuged to remove the supernatant. After washing with PBS, the supernatant was removed by centrifugation, and a blocking solution (PVDF Blocking Reagent for Can Get Signal; from TOYOBO) was added at 20 μL per well. After allowing the plate to stand for 30 minutes at room temperature, the supernatant was removed by centrifugation, and a solution obtained by diluting an anti-Ras (G12V Mutant Specific) antibody (Ras (G12V Mutant Specific) (D2H12) Rabbit mAb; from Cell Signaling Technology; 500-fold dilution) and an anti-3-actin antibody (Anti-beta Actin antibody; from Abcam; 5,000-fold dilution) with Can Get Signal Solution 2 (from TOYOBO) was added at 15 μL per well as primary antibodies. The plate was allowed to stand overnight at 4° C.
The next day, the supernatant was removed by centrifugation, and the plate was washed with PBS. The supernatant was removed by centrifugation, and a solution obtained by diluting an anti-rabbit IgG antibody (IRDye 800CW Goat anti-Rabbit IgG; from LI-COR Biosciences) and an anti-mouse IgG antibody (IRDye 680RD Donkey anti-Mouse IgG; from LI-COR Biosciences) 1,000-fold with Can Get Signal Solution 2 was added at 15 μL per well as secondary antibodies. After allowing the plate to stand at room temperature for an hour, the supernatant was removed by centrifugation, and the plate was washed with PBS. After removing the supernatant, the plate was dried as it was with air at room temperature for two hours or more, and the 700-nm and 800-nm fluorescent signals were measured with Aerius (from LI-COR Biosciences).
With the RAS G12V signaling value at the time of addition of DMSO corrected with the signaling value of 3-actin taken as 0% and with the RAS G12V signaling value at the time of addition of Example compound 17 of a final concentration of 1 μM taken as 100%, the RAS G12V degradation rates were calculated. The 50% degradation values (DC50) were calculated by Sigmoid-Emax model nonlinear regression analysis.
A general note: An ELISA detects its analyte on a solid surface through an enzyme-linked reagent.

In experiment [2] the test system is PA-TU-8902 cells. As to the kind of experiment: Non-anchorage-dependent cell growth inhibition (spheroid 3D culture), PA-TU-8902. Particulars: Homo sapiens, PaTu 8902, 144 h; KRAS G12V mutant-positive, 3D spheroid, six days, CellTiter-Glo 2.0; read-out: PA-TU-8902 IC50. It is filed as cell-based, human. The protocol:
(§1) Test Example 3: Evaluation of Non-Anchorage-Dependent Cell Growth Inhibitory Activity on Human KRAS G12V Mutant-Positive Pancreatic Cancer Line PA-TU-8902, Human KRAS G12D Mutant-Positive Pancreatic Cancer Line AsPC-1 or Human KRAS G12C Mutant-Positive Pancreatic Cancer Line MIA PaCa-2
(§2) The non-anchorage-dependent cell growth inhibitory activities of subject compounds were evaluated by spheroid 3D cell culture.
(§3) PA-TU-8902 cells, AsPC-1 cells or MIA PaCa-2 cells (RIKEN BRC, RCB2094) were seeded at 36 µL/well on a low-cell-adhesive round bottom 384-well plate (Prime Surface: from Sumitomo Bakelite) to give 5×10^2 cells per well. The PA-TU-8902 cells were under the same conditions as in Test Example 1-1, and the AsPC-1 cells were under the same conditions as in Test Example 1-2. For the MIA PaCa-2 cells, RPMI-1640 medium containing 10% fetal bovine serum was used in the presence of 5% CO2 at 37° C.
(§4) The next day, the subject compounds (6-9 points having final concentrations in the range of 3 μM to 0.3 nM) and DMSO, which was the solvent for the subject compounds, as a negative control were diluted 100-fold with a fresh medium and were each added at 4 μL per well. After culturing in the presence of 5% CO2 at 37° C. for six days, CellTiter-Glo 2.0 (from Promega) was added at 20 μL per well. After stirring with a plate mixer (from FINEPCR) at normal temperature for an hour, the luminescent signals were measured with ARVO X3 (from PerkinElmer).
(§5) With the signaling value in treatment with DMSO taken as 0% inhibition and with the signaling value in the medium alone without cells taken as 100% inhibition, the 50% inhibition values (IC50) were calculated by Sigmoid-Emax model nonlinear regression analysis.
(ATP-based viability assays read luminescence as a measure of living cells.)

Experiment [3] relates to AsPC-1 cells. As to the kind of experiment: Non-anchorage-dependent cell growth inhibition (spheroid 3D culture), AsPC-1. It counts as cell-based. Particulars: Homo sapiens, ASPC1, 144 h; KRAS G12D mutant-positive, 3D spheroid, six days, CellTiter-Glo 2.0; read-out: AsPC-1 IC50. The protocol:
as §1, §2, §3, §4, §5

Experiment [4] deals with MIA PaCa-2 cells. As to the kind of experiment: Non-anchorage-dependent cell growth inhibition (spheroid 3D culture), MIA PaCa-2. It is filed as cell-based. Particulars: Homo sapiens, MIA PaCa-2, 144 h; KRAS G12C mutant-positive, 3D spheroid, six days, CellTiter-Glo 2.0; read-out: MIA PaCa-2 IC50. On the procedure: as §1, §2, §3, §4, §5

As to `CO[C@@H](C)COc1nc(NC2CN(C(=O)O[C@H]3C[C@@H](N(C)C)C3)C2)c2cc(C3CC3)c(-c3c(C)c(F)cc4[nH]ncc34)c(OCc3ccc(-c4cn([C@H](C(=O)N5C[C@H](O)C[C@H]5C(=O)N[C@@H](CO)c5ccc(-c6ocnc6C)cc5)C(C)C)nn4)cc3)c2n1` (atropisomer, axis not shown; (M)) [Example 1, (1s,3R)-3-(dimethylamino)cyclobutyl 3-({(7M)-6-cyclopropyl-7-(6-fluoro-5-methyl-1H-indazol-4-yl)-8-{[4-(1-{(2S)-1-[(2S,4R)-4-hydroxy-2-({(1R)-2-hydroxy-1-[4-(4-methyl-1,3-oxazol-5-yl)phenyl]ethyl}carbamoyl)pyrrolidin-1-yl]-3-methyl-1-oxobutan-2-yl}-1H-1,2,3-triazol-4-yl)phenyl]methoxy}-2-[(2S)-2-methoxypropoxy]quinazolin-4-yl}amino)azetidine-1-carboxylate], in experiment [1], the DC50 was 31 nM. The pIC50 in experiment [2] is 7.24; in experiment [3] it was 7.55; in experiment [4], 7.96.

With `CO[C@@H](C)COc1nc(NC2CN(C(=O)O[C@H]3C[C@@H](N(C)C)C3)C2)c2cc(C3CC3)c(-c3c(C)c(F)cc4[nH]ncc34)c(OCc3ccc(-c4cn([C@H](C(=O)N5C[C@H](O)C[C@H]5C(=O)N[C@@H](CO)c5ccc(-n6cncn6)cc5)C(C)C)nn4)cc3)c2n1` (atropisomer, axis not shown; (M)) [Example 2, (1s,3R)-3-(dimethylamino)cyclobutyl 3-({(7M)-6-cyclopropyl-7-(6-fluoro-5-methyl-1H-indazol-4-yl)-8-{[4-(1-{(2S)-1-[(2S,4R)-4-hydroxy-2({(1R)-2-hydroxy-1-[4-(1H-1,2,4-triazol-1-yl)phenyl]ethyl}carbamoyl)pyrrolidin-1-yl]-3-methyl-1-oxobutan-2-yl}-1H-1,2,3-triazol-4-yl)phenyl]methoxy}-2-[(2S)-2-methoxypropoxy]quinazolin-4-yl}amino)azetidine-1-carboxylate], the DC50 in experiment [1] worked out at 18 nM. Further, the pIC50 in experiment [2] was 7.48; in experiment [3], 7.96; in experiment [4], 7.92.

On to `CO[C@@H](C)COc1cc(OC2CN(C(=O)N3CC(CN(C)C)C3)C2)c2cc(C3CC3)c(-c3c(C)c(F)cc4[nH]ncc34)c(OCc3ccc(-c4cn([C@H](C(=O)N5C[C@H](O)C[C@H]5C(=O)N[C@@H](CO)c5ccc(-n6cncn6)cc5)C(C)C)nn4)cc3)c2n1` (atropisomer, axis not shown; (M)) [Example 5, (4R)-1-[(2S)-2-(4-{4-[({(7M)-6-cyclopropyl-4-[(1-{3-[(dimethylamino)methyl]azetidine-1-carbonyl}azetidin-3-yl)oxy]-7-(6-fluoro-5-methyl-1H-indazol-4-yl)-2-[(2S)-2-methoxypropoxy]quinolin-8-yl}oxy)methyl]phenyl}-1H-1,2,3-triazol-1-yl)-3-methylbutanoyl]-4-hydroxy-N-{(1R)-2-hydroxy-1-[4-(1H-1,2,4-triazol-1-yl)phenyl]ethyl}-L-prolinamide], for which the DC50 in experiment [1] was determined as 26 nM. Besides, the pIC50 is 7.54 in experiment [2], 8.10 in experiment [3] and 8.30 in experiment [4].

Take `CO[C@@H](C)COc1cc(OC2CN(C(=O)N3CC(CN(C)C)C3)C2)c2cc(C3CC3)c(-c3c(C)c(F)cc4[nH]ncc34)c(OCc3ccc(-c4cn([C@H](C(=O)N5C[C@H](O)C[C@H]5C(=O)N[C@@H](CO)c5ccc(-c6ocnc6C)cc5)C(C)C)nn4)cc3)c2n1` (atropisomer, axis not shown; (M)) [Example 6, (4R)-1-[(2S)-2-(4-{4-[({(7M)-6-cyclopropyl-4-[(1-{3-[(dimethylamino)methyl]azetidine-1-carbonyl}azetidin-3-yl)oxy]-7-(6-fluoro-5-methyl-1H-indazol-4-yl)-2-[(2S)-2-methoxypropoxy]quinolin-8-yl}oxy)methyl]phenyl}-1H-1,2,3-triazol-1-yl)-3-methylbutanoyl]-4-hydroxy-N-{(1R)-2-hydroxy-1-[4-(4-methyl-1,3-oxazol-5-yl)phenyl]ethyl}-L-prolinamide]: the DC50 in experiment [1] turned out to be 22 nM. The pIC50 in experiment [2] is 7.49; in experiment [3], 7.85; in experiment [4], 8.15.

As to `CO[C@@H](C)COc1nc(NC2CN(C(=O)O[C@H]3C[C@@H](N(C)C)C3)C2)c2cc(C3CC3)c(-c3c(C)c(F)cc4[nH]ncc34)c(OCc3ccc(-c4cn([C@H](C(=O)N5C[C@H](O)C[C@H]5C(=O)N[C@@H](CO)c5ccc(-c6scnc6C)cc5)C(C)C)nn4)cc3)c2n1` (atropisomer, axis not shown; (M)) [Example 11, (1s,3R)-3-(dimethylamino)cyclobutyl 3-({(7M)-6-cyclopropyl-7-(6-fluoro-5-methyl-1H-indazol-4-yl)-8-{[4-(1-{(2S)-1-[(2S,4R)-4-hydroxy-2-({(1R)-2-hydroxy-1-[4-(4-methyl-1,3-thiazol-5-yl)phenyl]ethyl}carbamoyl)pyrrolidin-1-yl]-3-methyl-1-oxobutan-2-yl}-1H-1,2,3-triazol-4-yl)phenyl]methoxy}-2-[(2S)-2-methoxypropoxy]quinazolin-4-yl}amino)azetidine-1-carboxylate], the DC50 in experiment [1] worked out at 13 nM. The negative logarithm of the IC50 (pIC50) in experiment [2] is 7.35; in experiment [3], 7.96; in experiment [4] it was 7.89.
